One compound from PMC9067113 (IUCrJ, 2022) can be followed below.

Like-named read-outs stand apart in the source and are kept apart here.

Experiment [1] addresses T1, β-lactoglobulin I56F/L39A/M107W (FAW) (Bos taurus, UniProt P02754, I18S/I72F/L17A/L55A/M123W).
For a further experiment, the target named is natural β-lactoglobulin (Bos taurus, UniProt P02754).
For experiment [2], the target named is T2, β-lactoglobulin I56F/L39A/M107F (FAF) (Bos taurus, UniProt P02754, I18S/I72F/L17A/L55A/M123F). Particulars: 50 mM phosphate buffer pH 7.5.
In experiment [3] the target is T2, β-lactoglobulin I56F/L39A/M107F (FAF). Conditions: for N, stoichiometry: one set of binding sites model.
Experiment [4] has as its target T1, β-lactoglobulin I56F/L39A/M107W (FAW). Particulars: 50 mM phosphate buffer pH 7.5.

Chain of natural β-lactoglobulin (P02754 17-178): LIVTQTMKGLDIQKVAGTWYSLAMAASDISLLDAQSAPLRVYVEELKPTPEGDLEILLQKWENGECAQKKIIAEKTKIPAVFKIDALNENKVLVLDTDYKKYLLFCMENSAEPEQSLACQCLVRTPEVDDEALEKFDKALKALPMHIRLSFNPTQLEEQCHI
T1 sequence (P02754 17-178 L17A/I18S/L55A/I72F/M123W): as the sequence (P02754 17-178) above, with L1A, I2S, L39A, I56F, M107W counted along it
T2 sequence (P02754 17-178 L17A/I18S/L55A/I72F/M123F): as the sequence (P02754 17-178) above, with L1A, I2S, L39A, I56F, M107F counted along it

Consider `CNCCCN1c2ccccc2CCc2ccccc21` [DSM, desipramine], for which the “outcome of ITC titration at pH 8.5” value in experiment [1] (Tris buffer pH 8.5) was “insufficient enthalpy change for the calculation of binding parameters”; on natural β-lactoglobulin (native protein, Tris buffer pH 8.5) it was “insufficient enthalpy change for the calculation of binding parameters”. Moreover, the “N, stoichiometry” value in experiment [1] (pH 7.5, 25 mM HEPES, 150 mM NaCl, 293 K, one set of binding sites model) was determined as 0.92 ± 0.05; at natural β-lactoglobulin (Natural BLG, pH 7.5, 25 mM HEPES, 150 mM NaCl, 293 K, one set of binding sites model) it was 0.91 ± 0.08; in experiment [3] (pH 7.5, 25 mM HEPES, 150 mM NaCl, 293 K), 0.94 ± 0.06; in experiment [3] (pH 8.5, Tris buffer, 293 K) it was 1.21 ± 0.08. Besides, the TΔS a in experiment [1] (pH 7.5, 293 K) is 4.2485 kcal/mol; at natural β-lactoglobulin (Natural BLG, pH 7.5, 293 K), 4.395 kcal/mol; in experiment [3] (pH 7.5, 293 K) it was 4.2192 kcal/mol; in experiment [3] (pH 8.5, Tris buffer, 293 K), 5.3033 kcal/mol. Moreover, the “ΔH a, enthalpy change” value was -1.792 ± 0.137 kcal/mol in experiment [1] (pH 7.5, 293 K); -1.298 ± 0.145 kcal/mol on natural β-lactoglobulin (Natural BLG, pH 7.5, 293 K); -1.634 ± 0.133 kcal/mol in experiment [3] (pH 7.5, 293 K). The “ΔS a, entropy change” value in experiment [1] (pH 7.5, 293 K) came out at 14.5 cal mol^−1 K^−1; on natural β-lactoglobulin (Natural BLG, pH 7.5, 293 K), 15.0 cal mol^−1 K^−1; in experiment [3] (pH 7.5, 293 K) it was 14.4 cal mol^−1 K^−1; in experiment [3] (pH 8.5, Tris buffer, 293 K) it was 18.1 cal mol^−1 K^−1. The “stoichiometry (DSM molecule per BLG chain), CD” value in experiment [2] and in experiment [4] was 1 in each case.
